# Data: patent publication US20100273700A1, “USE OF A PEPTIDE AS A THERAPEUTIC AGENT” (priority 2007, published 2010)
# Key:
# CEM-SS cells = experiment: Cytotoxicity in the HIV-1 assay (MTS cell viability); conditions: CEM-SS cells plus peptide only; peptide 10 micrograms per ml; MTS
# [1] = as above; conditions: human, CEM-SS cells (uninfected, cells plus peptide only)
# [2] = tested on: Primary Human endothelial cells (HUVEC); experiment: Endothelial cell migration assay; format: cell-based; conditions: 10 micrograms per ml, 22 hours
# [3] = tested on: Human Peripheral Blood Mononuclear Cells (PBMC); experiment: T cell proliferation assay (PHA, 3H-thymidine); format: cell-based; conditions: 10 micrograms per ml, 3H-thymidine incorporation
# [4] = tested on: Human Peripheral Blood Mononuclear Cells (PBMC); experiment: B cell proliferation assay (SAC plus Interleukin-2, 3H-thymidine); format: cell-based; conditions: 10 micrograms per ml, 3H-thymidine incorporation
# RAW 264.7 cells = experiment: Phagocytosis assay (Fluorescein-labeled Escherichia coli); format: cell-based, Mouse; conditions: 10 micrograms per ml, flow cytometry
# A549 cells [5] = experiment: Apoptosis induction assay (Annexin-5); format: cell-based, Human; conditions: 24 hours exposure
# Procedure: Human A549 cells (carcinomic human alveolar basal epithelial cells) were utilized in the experiments employing the Annexin-5 apoptosis assay. […] Test peptide-micrograms per ml—were exposed for 24 hours to the A549 cells before they were analyzed for signs of apoptosis.
# Streptococcus pneumoniae = Streptococcus pneumoniae assay; format: cell-based; conditions: peptide 10 micrograms per ml, read visually
# Source text: Results from Streptococcus pneumoniae assay:
# HCMV strain AD169 = experiment: HCMV plaque reduction assay; format: cell-based; conditions: MRC-5 cells; peptide 10 micrograms per ml; 7-10 days
# Source text: Ganciclovir was used as positive control.
# [6] = tested on: Tumor Necrosis Factor-α (TNF-α); experiment: Th1/Th2 cytokine profiling assay: TNF-α; format: cell-based, Balb/c mice; conditions: Ovalbumin-restimulated spleen cells; 10 micrograms per ml; 72 hours
# Source text: (§1) The Balb/c mice (originated in 1923, it is a popular strain and is used in many different research disciplines. Also classified as an inbred from the production of 20 or more successive brother-sister matings, the Balb/c mouse is albino and small in size) were immunized on Days 1, 15, and 29 with Ovalbumin (Ovalbumin is the main protein found in egg white, commonly used to stimulate an immunological reaction in test animals) in PBS (5 micrograms/injection). On day 50, spleens of the mice were harvested (3 weeks after last boost with Ovalbumin). Cells were cultured (2×10^5/well in triplicate) and incubated with culture medium or test peptide—10 micrograms per ml—for 30 min. Thereafter, additional Ovalbumin was added to the cells at 10 micrograms/ml for in vitro restimulation of the cells. 72 hours later, cell supernatants were harvested and assayed using the Becton Dickinson Mouse Th1/Th2 Cytokine CBA Kit.
# A549 cells [7] = experiment: Propidium iodide cell cycle assay; format: cell-based, Human; conditions: 10 micrograms per ml, 24 hours, FACS
# A549 cells [8] = experiment: Apoptosis prevention assay (C2 ceramide, Annexin-5); format: cell-based, Human; conditions: A549 cells pretreated 30 min, 10 micrograms per ml
# [9] = Cytotoxicity testing in MRC-5 cells (CellTiter 96); conditions: human, MRC-5 cells (embryonal lung fibroblasts)
# Interleukin-2 (IL-2) = experiment: Th1/Th2 cytokine profiling assay: IL-2; format: cell-based, Balb/c mice; conditions: Ovalbumin-restimulated spleen cells; 10 micrograms per ml; 72 hours
# Source text: as §1
# Interleukin-5 (IL-5) = experiment: Th1/Th2 cytokine profiling assay: IL-5; format: cell-based, Balb/c mice; conditions: Ovalbumin-restimulated spleen cells; 10 micrograms per ml; 72 hours
# Source text: as §1
# [10] = Cytotoxicity in the HBV assay (dye uptake cell viability); format: cell-based; conditions: human; HepG2-2.2.15 cells; test peptide 10 micrograms per ml; dye uptake assay (% cell control)
# Interleukin-4 (IL-4) = experiment: Th1/Th2 cytokine profiling assay: IL-4; format: cell-based, Balb/c mice; conditions: Ovalbumin-restimulated spleen cells; 10 micrograms per ml; 72 hours
# Source text: as §1
# Pseudomonas aeruginosa = Pseudomonas aeruginosa assay; format: cell-based; conditions: peptide 10 micrograms per ml, read visually
# [11] = tested on: hepatitis B virus (HBV) ayw strain in HepG2-2.2.15 cells; experiment: HBV experimental assay system (secreted HBV DNA, TaqMan PCR); format: cell-based; conditions: test peptide 10 micrograms per ml; six days; HBV DNA in supernatant
# MRSA = experiment: Methicillin Resistant Staphylococcus Aureus (MRSA) assay; format: cell-based; conditions: peptide 10 micrograms per ml, read visually
# HUVEC = experiment: Endothelial tube formation assay; format: cell-based, Human; conditions: 10 micrograms per ml, 20 hours
# Source text: Positive control was vehicle only.
# TNF alpha = TNF alpha production assay (LPS-stimulated macrophages, ELISA); format: cell-based, human; conditions: 10 micrograms per ml, lipopolysaccharide 200 ng/ml, overnight
# Source text: Not stimulated macrophages served as negative background control.
# Interferon-γ (IFN-γ) = experiment: Th1/Th2 cytokine profiling assay: IFN-γ; format: cell-based, Balb/c mice; conditions: Ovalbumin-restimulated spleen cells; 10 micrograms per ml; 72 hours
# Source text: as §1
smiles,measurement,setting,value
"Cc1cn([C@H]2C[C@H](N=[N+]=[N-])[C@@H](CO)O2)c(=O)[nH]c1=O [AZT, reference compound]",% Cell viability,CEM-SS cells,97%
CC(C)C[C@H](NC(=O)[C@H](Cc1ccccc1)NC(=O)CNC(=O)CNC(=O)[C@@H](N)Cc1ccc(O)cc1)C(=O)N[C@@H](CCCNC(=N)N)C(=O)N[C@@H](CCCNC(=N)N)C(=O)N[C@@H](CCC(N)=O)C(=O)N[C@@H](Cc1ccccc1)C(=O)N[C@@H](CCCCN)C(=O)N[C@H](C(=O)N[C@H](C(=O)N[C@H](C(=O)O)[C@@H](C)O)C(C)C)C(C)C [Dynorphin B],% Cell viability,CEM-SS cells,toxic
same,viability at 10 micrograms per ml,[1],37%
same,% inhibition of migration,[2],57%
same,% of PHA induced control,[3],107.1%
same,% of SAC/IL2 induced control,[4],104.8%
same,% of control phagocytosis,RAW 264.7 cells,102.9%
same,% of induction,A549 cells [5],1.2%
same,% inhibition,Streptococcus pneumoniae,100.0%
same,% plaque reduction,HCMV strain AD169,1.0%
same,TNF-a spleen cells; TH1 response (% of control),[6],105.2 % of control
same,Cell cycle analysis G0/G1,A549 cells [7],59.5
same,Cell cycle analysis G2/M,A549 cells [7],8.3
same,Cell cycle analysis S,A549 cells [7],32.2
same,% prevention of ceramide induced apoptosis,A549 cells [8],0.0%
same,viability at 144 h,[9],100%
same,IL-2 spleen cells (% of control),Interleukin-2 (IL-2),134.2 % of control
same,IL-5 spleen cells; TH2 response (% of control),Interleukin-5 (IL-5),82.0 % of control
same,"viability at 144 h, 10 micrograms per ml",[10],89.7%
same,IL-4 spleen cells; TH2 response (% of control),Interleukin-4 (IL-4),208.2 % of control
same,% inhibition,Pseudomonas aeruginosa,0.0%
same,% inhibition of HBV replication in HEP G2 cells,[11],45.7%
same,% inhibition,MRSA,0.0%
same,% inhibition of tube formation,HUVEC,11%
same,% of LPS induction,TNF alpha,97.8%
same,IFNγ spleen cells; TH1 response (% of control),Interferon-γ (IFN-γ),73.9 % of control
